Measured values as given in patent publication US20180118721A1, “PYRIMIDINE DERIVATIVES” (Merck Patent GmbH, priority 2015, published 2018).

Experiments:
[1] = target: T1, humanMTH1 (aminoacids 42 to 197) (Homo sapiens, UniProt P36639); assay: Binding affinities and kinetics on MTH1 surfaces by surface plasmon resonance (SPR); details: SPR, Biacore4000, 25° C.; Table 1, grouped; read-out: KD IC50
T1 construct: humanMTH1 (aminoacids 42 to 197); His tag at the N-terminus; purchased Abnova ab99390; host or cells: E. coli
Method: The SPR experiments were performed using a Biacore4000 instrument. […] HumanMTH1 was immobilized on Biacore CM5 chips at 25° C. and a flow rate of 10 μL/min using amine coupling at pH 5.5 and in presence of 1 μM MSC2567771B-1 according to Biacore's standard protocol. MTH1 was applied at a concentration of 10 μg/mL and depending on the duration of the injection time immobilization levels between 500 and 2,000 RU were obtained. Sample compounds were applied in form of titration series with a doubling of concentration at each subsequent injection. In general, 10 concentrations were injected covering a dilution range of 500 fold. Before and after each of these titration series the binding capability of the surface was controlled by the injection of the positive control S-Crizotinib at a fixed concentration of 2 μM. Kinetic titration experiments were performed at 25° C. with a flow rate of 30 μL/min, a sample contact time of 90 sec and a dissociation time of 420 sec in running buffer (20 mM Tris-HCl (Tris(hydroxymethyl)-aminomethane HCl) pH 7.40, 150 mM NaCl, 5 mM MgCl2, 1 mM DTT (dithiothreitol), 0.1 mM EGTA (ethylene glycol tetraacetic acid), 0.05% Tween 20) containing 2% DMSO (dimethyl sulfoxide). Buffer injections identical to the sample injections were executed at the beginning of the successive series for the purpose of double referencing. Solvent correction cycles (eight correction points, 1.4%-2.8% DMSO) were run at the same intervals. For surface conditioning ten start-up cycles (buffer injections) were run. Data points were collected at a sample rate of 10 Hz.
Data sets were processed and analyzed using the software Biacore4000 Evaluation, version 1.0. Solvent corrected and double-referenced association and dissociation phase data were fitted to a simple 1:1 interaction model with mass transport limitations.
Measured values are indicated as KD IC50 in the Table below.

[2] = target: T2, purified human recombinant MTH1 (human MTH1, residues 42-197) (Homo sapiens, UniProt P36639); assay: MTH1 enzymatic assay (luminescence-based, PPiLight); format: biochemical; details: 6 μM 8-oxo-dGTP, Table 1, grouped
T2 construct: human MTH1, residues 42-197, Uniprot-ID: P36639, expressed in E. coli; made in house; host or cells: E. coli
Method: The IC50 value was determined by a MTH1 enzymatic assay. The assay comprises the principal steps of incubating a mixture of MTH1, the compound in question at different concentrations and 8-oxo-2′-deoxyguanosine-5′-triphosphate (8-oxo-dGTP) in assay buffer. Nucleotide triphosphate hydrolysis by MTH1, i.e. decomposition of 8-oxo-2′-deoxyguanosine-5′-triphosphate, produces 8-oxo-2′-deoxyguanosine-5′-monophosphate (8-oxo-dGMP) and pyrophosphate (PPi). The amount of generated pyrophosphate (PPi) is then measured by a bioluminescent reaction. In detail: The MTH1 (human mutT homologue 1) enzymatic assay is performed as a luminescence-based 384-well assay. […] The assay buffer contains 100 mM Tris-acetate pH 7.5, 40 mM NaCl, 10 mM Mg(OAc)2, 0.005% Tween 20 and 2 mM dithiothreitol (DTT). […] Then, in a second step, the substrate 8-oxo-dGTP is added and the reaction mixture is incubated for 30 minutes at 22° C. The pharmacologically relevant assay volume is 5 PI. The final concentrations in the assay during incubation of the reaction mixture are 0.1-0.2 nM, typically 0.1 nM, MTH1 and 6 μM 8-oxo-dGTP. After incubation of the reaction mixture, the generation of pyrophosphate (PPi) as a result of nucleotide triphosphate (8-oxo-dGTP) hydrolysis by MTH1 is detected using the PPiLight inorganic pyrophosphate assay kit (Lonza) (third step). 2 to 5 μl, such as 3 to 5 μl, typically 3 or 4 μl, for instance 4 μl, of a 1:1 mixture of PPiLight converting reagent (AMP) and PPiLight detection reagent are added to the reaction mixture. In the presence of pyrophosphate, the detection reagent catalyzes the conversion of AMP to ATP. Luciferase then produces light from the newly formed ATP and luciferin. The amount of light produced is directly proportional to the amount of PPi in the sample. Following signal development for 1 h the plates are analysed in an EnVision (PerkinElmer) microplate reader using the ultra sensitive luminescence option. Data are processed employing the Genedata Screener software. In particular, IC50 values are determined in the usual manner (using the Hill Equation) by fitting a dose-response curve to the data points using nonlinear regression analysis.
Hill Equation: Y=S0+(Sinf−S0)/(1+(10^logIC50/10^c)^n); Y: luminescence signal (response), S0: activity level at zero concentration of test compound, Sinf=activity level at infinite concentration, Hill coefficient n=measure of the slope at IC50, c=concentration in logarithmic units corresponding to the values on the x-axis of the dose response curve plot

SMILES | Kd [1] | IC50 [2]
CNc1cc(N2CCC[C@](O)(c3ccccc3)C2)nc(N)n1 (single isomer, unassigned) [Example 91] | 1 to 100 nM | 1 to 100 nM
CNc1cc(N2CCCCC2Cc2ccccc2OC)nc(N)n1 (single isomer, unassigned) [Example 107] | 1 to 100 nM | 1 to 100 nM
C[C@H]1C(c2ccccc2)CCN1c1cc(NC2CC2)nc(N)n1 (stereo in doubt) [Example 54, N4-Cyclopropyl-6-((2S,3R)-2-methyl-3-phenyl-pyrrolidin-1-yl)-pyrimidine-2,4-diamine] | 1 to 100 nM | 1 to 100 nM
C[C@H]1[C@H](c2ccccc2)CCN1c1cc(NC2CC2)nc(N)n1 (stereo in doubt) [Example 55, N4-Cyclopropyl-6-((2S,3S)-2-methyl-3-phenyl-pyrrolidin-1-yl)-pyrimidine-2,4-diamine] | 1 to 100 nM | 1 to 100 nM
C[C@@H]1[C@H](c2ccccc2)CCN1c1cc(NC2CC2)nc(N)n1 (stereo in doubt) [Example 56, N4-Cyclopropyl-6-((2R,3S)-2-methyl-3-phenyl-pyrrolidin-1-yl)-pyrimidine-2,4-diamine] | 1 to 100 nM | 1 to 100 nM
C[C@@H]1C(c2ccccc2)CCN1c1cc(NC2CC2)nc(N)n1 (stereo in doubt) [Example 57, N4-Cyclopropyl-6-((2R,3R)-2-methyl-3-phenyl-pyrrolidin-1-yl)-pyrimidine-2,4-diamine] | 1 to 100 nM | 1 to 100 nM
Nc1nc(NC2CC2)cc(N2CC[C@@H](O)C2)n1 [Example 29, (R)-1-(2-Amino-6-cyclopropylamino-pyrimidin-4-yl)-pyrrolidin-3-ol] | 1 to 100 nM | 1 to 100 nM
Nc1nc(NC2CC2)cc(N2CCCC2c2ccccc2)n1 (stereo not drawn) [Example 30, N4-Cyclopropyl-6-(2-phenyl-pyrrolidin-1-yl)-pyrimidine-2,4-diamine] | 1 to 100 nM | 1 to 100 nM
CC1CC2CCCCC2N1c1cc(NC2CC2)nc(N)n1 (stereo not drawn) [Example 31, N4-Cyclopropyl-6-(2-methyl-octahydro-indol-1-yl)-pyrimidine-2,4-diamine] | 1 to 100 nM | 1 to 100 nM
Nc1nc(NC2CC2)cc(N2CCC(O)(c3ccccc3)C2)n1 (stereo not drawn) [Example 32, 1-(2-Amino-6-cyclopropylamino-pyrimidin-4-yl)-3-phenyl-pyrrolidin-3-ol] | 1 to 100 nM | 1 to 100 nM
CC1CCCN1c1cc(NC2CC2)nc(N)n1 (stereo not drawn) [Example 33, N4-Cyclopropyl-6-(2-methyl-pyrrolidin-1-yl)-pyrimidine-2,4-diamine] | 1 to 100 nM | 1 to 100 nM
Nc1nc(NC2CC2)cc(N2CCCC2Cc2ccccc2)n1 (stereo not drawn) [Example 34, 6-(2-Benzyl-pyrrolidin-1-yl)-N4-cyclopropyl-pyrimidine-2,4-diamine] | 1 to 100 nM | < 1 nM
Nc1nc(NC2CC2)cc(N2CCc3ccccc32)n1 [Example 35, N4-Cyclopropyl-6-(2,3-dihydro-indol-1-yl)-pyrimidine-2,4-diamine] | 1 to 100 nM | 1 to 100 nM
CC1(O)CCN(c2cc(NC3CC3)nc(N)n2)C1 (stereo not drawn) [Example 43, 1-(2-Amino-6-cyclopropylamino-pyrimidin-4-yl)-3-methyl-pyrrolidin-3-ol] | 1 to 100 nM | 1 to 100 nM
Nc1nc(NC2CC2)cc(N2CC[C@H](O)C2)n1 [Example 44, (S)-1-(2-Amino-6-cyclopropylamino-pyrimidin-4-yl)-pyrrolidin-3-ol] | 1 to 100 nM | 1 to 100 nM
C[C@@H]1C[C@H](O)CN1c1cc(NC2CC2)nc(N)n1 [Example 45, (3S,5R)-1-(2-Amino-6-cyclopropylamino-pyrimidin-4-yl)-5-methyl-pyrrolidin-3-ol] | 1 to 100 nM | 1 to 100 nM
C[C@H]1C[C@@H](O)CN1c1cc(NC2CC2)nc(N)n1 [Example 46, (3R,5S)-1-(2-Amino-6-cyclopropylamino-pyrimidin-4-yl)-5-methyl-pyrrolidin-3-ol] | < 1 nM | < 1 nM
Nc1nc(NC2CC2)cc(N2CCC[C@@H]2Cc2ccccc2Cl)n1 [Example 47, 6-[(R)-2-(2-Chloro-benzyl)-pyrrolidin-1-yl]-N4-cyclopropyl-pyrimidine-2,4-diamine] | < 1 nM | < 1 nM
CNc1cc(N2CCCC2C(C)(C)c2ccccc2)nc(N)n1 (stereo not drawn) [Example 83, N4-Methyl-6-[2-(1-methyl-1-phenylethyl)-pyrrolidin-1-yl]-pyrimidine-2,4-diamine] | – | < 1 nM
CNc1cc(N2CCCC2Cc2ccccc2C)nc(N)n1 (stereo not drawn) [Example 89, N4-Methyl-6-[2-(2-methyl-benzyl)-pyrrolidin-1-yl]-pyrimidine-2,4-diamine] | – | < 1 nM
CNc1cc(N2CCC[C@@H]2Cc2ccccc2OC)nc(N)n1 [Example 93, 6-[(R)-2-(2-Methoxy-benzyl)-pyrrolidin-1-yl]-N4-methyl-pyrimidine-2,4-diamine] | – | < 1 nM
CNc1cc(N2CC(c3ccccc3)CC2=O)nc(N)n1 (stereo not drawn) [Example 96, 1-(2-Amino-6-methylamino-pyrimidin-4-yl)-4-phenyl-pyrrolidin-2-one] | – | > 100 nM
CNc1cc(N2C(=O)CC[C@H]2CO)nc(N)n1 [Example 99, (S)-1-(2-Amino-6-methylamino-pyrimidin-4-yl)-5-hydroxymethyl-pyrrolidin-2-one] | – | > 100 nM
CNc1cc(N2CCCC2C(C)C)nc(N)n1 (stereo not drawn) [Example 101, 6-(2-Isopropyl-pyrrolidin-1-yl)-N4-methyl-pyrimidine-2,4-diamine-formate] | – | < 1 nM
CNc1cc(N2CCCC2C2CCCC2)nc(N)n1 (stereo not drawn) [Example 102, 6-(2-Cyclopentyl-pyrrolidin-1-yl)-N4-methyl-pyrimidine-2,4-diamine] | – | < 1 nM
CNc1cc(N2CCC(c3ccccc3)C2=O)nc(N)n1 (stereo not drawn) [Example 103, 1-(2-Amino-6-methylamino-pyrimidin-4-yl)-3-phenyl-pyrrolidin-2-one] | – | 1 to 100 nM
Nc1nc(NC2CC2)cc(N2C(=O)CCC2c2ccc(Cl)cc2)n1 (stereo not drawn) [Example 104, 1-(2-Amino-6-cyclopropylamino-pyrimidin-4-yl)-5-(4-chloro-phenyl)-pyrrolidin-2-one] | – | > 100 nM
CNc1cc(N2CCCC2c2ccsc2)nc(N)n1 (stereo not drawn) [Example 111, N4-Methyl-6-(2-thiophen-3-yl-pyrrolidin-1-yl)-pyrimidine-2,4-diamine] | – | < 1 nM
Nc1nc(NC2CC2)cc(N2CCCC2C(=O)NCCc2ccc(S(=O)(=O)F)cc2)n1 (stereo not drawn) [Example 119, 4-(2-{[1-(2-Amino-6-cyclopropylamino-pyrimidin-4-yl)-pyrrolidine-2-carbonyl]-amino}-ethyl)-benzenesulfonyl fluoride] | – | 1 to 100 nM
Cc1ccc(CCNc2cc(N3CCC(F)(F)C3)nc(N)n2)cc1 [Example 145, 6-(3,3-Difluoro-pyrrolidin-1-yl)-N4-(2-p-tolyl-ethyl)-pyrimidine-2,4-diamine-formiate] | – | 1 to 100 nM
